Measurements taken from US8741897B2, “Glucocorticoid mimetics, methods of making them, pharmaceutical compositions and uses thereof” (Boehringer Ingelheim Pharmaceuticals Inc., priority 2003, dated 2014).

Experiments:
[1] = test system: Human osteosarcoma MG-63 cells; assay: Inhibition of osteocalcin production from osteoblast cell line MG-63; type: cell-based; conditions: Vitamin D 10 nM, 48 hours
Experimental: 7. Inhibition of Osteocalcin Production from Osteoblast Cell Line MG-63
The next day, wells are replaced with fresh media. Cells are treated with Vitamin D (Sigma, Cat. No. D1530) to a final concentration of 10 nM, and with the test compounds in concentrations of 10^−6 M to 10^−9 M, in a total volume of 200 μL per well. Samples are done in duplicates. […] Positive control wells receive Vitamin D only, without compounds, and represent maximum (100%) amount of osteocalcin production. Plates are incubated at 37° C. incubator for 48 hours and supernatants are harvested at the end of incubation. Amounts of osteocalcin in the supernatants are determined by the Glype osteocalcin ELISA kit (Zymed, Cat. No. 99-0054) according to manufacture's protocol. Inhibition of osteocalcin by test compounds is expressed in percentage relative to positive controls. IC50 values of the test compounds are derived by non-lineal curve fitting.

[2] = test system: glucocorticoid receptor function; assay: one or more of the above assays (GR binding and glucocorticoid receptor cell assays: aromatase, IL-6, TAT, MMTV-Luc, IL-8, ICAM-Luc); type: cell-based; conditions: assay not specified per compound
[3] = target: T1, human glucocorticoid receptor (GR) complex (Homo sapiens, UniProt P04150); assay: Glucocorticoid receptor competitive binding assay (fluorescence polarization, TAMRA-labeled dexamethasone probe); conditions: compounds of Formula (IA)
T1 construct: made in house; host or cells: insect expression system (baculovirus lysate)
T1 sequence (P04150 1-777): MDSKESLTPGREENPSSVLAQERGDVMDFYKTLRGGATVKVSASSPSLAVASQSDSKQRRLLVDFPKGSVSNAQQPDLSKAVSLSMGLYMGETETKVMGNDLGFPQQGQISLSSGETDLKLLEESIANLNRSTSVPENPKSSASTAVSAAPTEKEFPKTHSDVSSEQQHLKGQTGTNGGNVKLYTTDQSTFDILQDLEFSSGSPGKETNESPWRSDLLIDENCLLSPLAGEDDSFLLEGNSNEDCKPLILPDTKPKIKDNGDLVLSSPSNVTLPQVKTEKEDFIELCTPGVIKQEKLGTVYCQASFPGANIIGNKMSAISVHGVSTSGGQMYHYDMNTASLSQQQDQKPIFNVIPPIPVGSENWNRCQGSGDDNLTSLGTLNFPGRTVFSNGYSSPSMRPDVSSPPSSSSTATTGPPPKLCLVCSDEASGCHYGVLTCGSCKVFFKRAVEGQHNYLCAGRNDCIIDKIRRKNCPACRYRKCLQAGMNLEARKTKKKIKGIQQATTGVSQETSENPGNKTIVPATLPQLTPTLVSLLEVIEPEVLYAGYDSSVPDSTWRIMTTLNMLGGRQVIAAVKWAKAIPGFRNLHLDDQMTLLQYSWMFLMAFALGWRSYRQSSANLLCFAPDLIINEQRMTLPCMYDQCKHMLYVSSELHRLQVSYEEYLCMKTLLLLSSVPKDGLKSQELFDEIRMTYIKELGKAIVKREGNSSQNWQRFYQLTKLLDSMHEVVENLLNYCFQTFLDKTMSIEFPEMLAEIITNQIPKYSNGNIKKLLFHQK
How it was run: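 Fluorescence-polarization competition against 15 nM TAMRA-dexamethasone (stock added to the mix) for human GR complex from baculovirus lysate diluted 1:170. Buffer: 10 mM TES, 50 mM KCl, 20 mM Na2MoO4, 1.5 mM EDTA, 0.04% CHAPS, 10% glycerol, 1 mM DTT, pH 7.4. IC50 from 4-parameter logistic fit.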

SMILES	inhibit the vitamin D stimulated production of osteocalcin [1]	activity as agonists of the glucocorticoid receptor function in one or more of the above assays [2]	activity in the GR binding assay [3]
CC(C)(CC(O)(Cc1cc2cc(-c3cccnc3)ccc2[nH]1)C(F)(F)F)c1cc(F)cc2c1OCC2 (centres unmarked)	inhibit	–	–
Cc1ccc(F)cc1C(C)(C)CC(O)(Cc1cc2cc(N3CCOCC3)ncc2[nH]1)C(F)(F)F (centres unmarked) [1,1,1-Trifluoro-4-(5-fluoro-2-methylphenyl)-4-methyl-2-(5-morpholin-4-yl-1H-pyrrolo[2,3-c]pyridin-2-ylmethyl)pentan-2-ol]	inhibit	–	–
CC(C)(CC(O)(Cc1cc2cnccc2[nH]1)C(F)(F)F)c1cccc(Cl)c1 (centres unmarked) [4-(3-Chlorophenyl)-1,1,1-trifluoro-4-methyl-2-(1H-pyrrolo[3,2-c]pyridin-2-ylmethyl)pentan-2-ol]	inhibit	potent agonists	–
Cc1nccc2[nH]c(CC(O)(CC(C)(C)c3cc(Cl)cc4c3OCC4)C(F)(F)F)cc12 (centres unmarked) [4-(5-Chloro-2,3-dihydrobenzofuran-7-yl)-1,1,1-trifluoro-4-methyl-2-(4-methyl-1H-pyrrolo[3,2-c]pyridin-2-ylmethyl)pentan-2-ol]	inhibit	potent agonists	–
Cc1ccc(F)cc1C(C)(C)CC(O)(Cc1cc2cc(N3CCCCC3)ncc2[nH]1)C(F)(F)F (centres unmarked) [1,1,1-Trifluoro-4-(5-fluoro-2-methylphenyl)-4-methyl-2-(5-piperidin-1-yl-1H-pyrrolo[2,3-c]pyridin-2-ylmethyl)pentan-2-ol]	inhibit	–	–
Cc1c(CC(O)(CC(C)(C)c2cc(-c3cncnc3)cc3c2OCC3)C(F)(F)F)[nH]c2cnccc12 (centres unmarked) [1,1,1-Trifluoro-4-methyl-2-(3-methyl-1H-pyrrolo[2,3-c]pyridin-2-ylmethyl)-4-(5-pyrimidin-5-yl-2,3-dihydrobenzofuran-7-yl)pentan-2-ol]	inhibit	potent agonists	–
CCN(C)c1cc2cc(CC(O)(CC(C)(C)c3cc(Cl)cc4c3OCC4)C(F)(F)F)[nH]c2cn1 (centres unmarked) [4-(5-Chloro-2,3-dihydrobenzofuran-7-yl)-2-[5-(ethylmethylamino)-1H-pyrrolo[2,3-c]pyridin-2-ylmethyl]-1,1,1-trifluoro-4-methylpentan-2-ol]	inhibit	potent agonists	–
COc1ccc(-c2cncnc2)cc1C(C)(C)CC(O)(Cc1cc2cc(N3CCCCC3)ncc2[nH]1)C(F)(F)F (centres unmarked) [1,1,1-Trifluoro-4-(2-methoxy-5-pyrimidin-5-ylphenyl)-4-methyl-2-(5-piperidin-1-yl-1H-pyrrolo[2,3-c]pyridin-2-ylmethyl)pentan-2-ol]	inhibit	potent agonists	–
CC(C)(CC(O)(Cc1cc2cc(N3CCOCC3)ncc2[nH]1)C(F)(F)F)c1cccc(Br)c1 (centres unmarked) [4-(3-Bromophenyl)-1,1,1-trifluoro-4-methyl-2-(5-morpholin-4-yl-1H-pyrrolo[2,3-c]pyridin-2-ylmethyl)pentan-2-ol]	inhibit	potent agonists	–
CN(C)c1cc2cc(CC(O)(CC(C)(C)c3cc(F)ccc3O)C(F)(F)F)[nH]c2cn1 (centres unmarked) [2-[3-(5-Dimethylamino-1H-pyrrolo[2,3-c]pyridin-2-ylmethyl)-4,4,4-trifluoro-3-hydroxy-1,1-dimethylbutyl]-4-fluorophenol]	inhibit	potent agonists	–
CC(C)(CC(O)(Cc1cc2cc(O)ncc2[nH]1)C(F)(F)F)c1cc(-c2ccccc2)ccc1O (centres unmarked) [2-[2-Hydroxy-4-(4-hydroxybiphenyl-3-yl)-4-methyl-2-trifluoromethylpentyl]-1H-pyrrolo[2,3-c]pyridin-5-ol]	inhibit	potent agonists	–
COc1ccc(F)cc1C(C)(C)CC(O)(Cc1cc2cc(-c3ccccc3)ncc2[nH]1)C(F)(F)F (centres unmarked) [1,1,1-Trifluoro-4-(5-fluoro-2-methoxyphenyl)-4-methyl-2-(5-phenyl-1H-pyrrolo[2,3-c]pyridin-2-ylmethyl)pentan-2-ol]	inhibit	potent agonists	–
CC(C)(CC(O)(Cc1cc2cc(N3CCCCC3)ncc2[nH]1)C(F)(F)F)c1cc(S(C)(=O)=O)cc2c1OCC2 (centres unmarked) [1,1,1-Trifluoro-4-(5-methanesulfonyl-2,3-dihydrobenzofuran-7-yl)-4-methyl-2-(5-piperidin-1-yl-1H-pyrrolo[2,3-c]pyridin-2-ylmethyl)pentan-2-ol]	inhibit	potent agonists	–
Cc1ccc(F)cc1C(C)(C)CC(O)(Cc1cc2cc(-c3ccccc3)ncc2[nH]1)C(F)(F)F (centres unmarked) [1,1,1-Trifluoro-4-(5-fluoro-2-methylphenyl)-4-methyl-2-(5-phenyl-1H-pyrrolo[2,3-c]pyridin-2-ylmethyl)pentan-2-ol]	inhibit	potent agonists	–
CCN(C)c1cc2cc(CC(O)(CC(C)(C)c3cc(F)ccc3C)C(F)(F)F)[nH]c2cn1 (centres unmarked) [2-[5-(Ethylmethylamino)-1H-pyrrolo[2,3-c]pyridin-2-ylmethyl]-1,1,1-trifluoro-4-(5-fluoro-2-methylphenyl)-4-methylpentan-2-ol]	inhibit	potent agonists	–
COc1ccc(-c2cccnc2)cc1C(C)(C)CC(O)(Cc1cc2cc(N3CCCCC3)ncc2[nH]1)C(F)(F)F (centres unmarked) [1,1,1-Trifluoro-4-(2-methoxy-5-pyridin-3-ylphenyl)-4-methyl-2-(5-piperidin-1-yl-1H-pyrrolo[2,3-c]pyridin-2-ylmethyl)pentan-2-ol]	inhibit	potent agonists	–
CC(C)(CC(O)(Cc1cc2cc(-c3ccccc3)ncc2[nH]1)C(F)(F)F)c1cc(Cl)cc2c1OCC2 (centres unmarked) [4-(5-Chloro-2,3-dihydrobenzofuran-7-yl)-1,1,1-trifluoro-4-methyl-2-(5-phenyl-1H-pyrrolo[2,3-c]pyridin-2-ylmethyl)pentan-2-ol]	inhibit	potent agonists	–
CC(C)(CC(O)(Cc1cc2cnccc2[nH]1)C(F)(F)F)c1cc(Cl)cc2c1OCC2 (centres unmarked) [4-(5-Chloro-2,3-dihydrobenzofuran-7-yl)-1,1,1-trifluoro-4-methyl-2-(1H-pyrrolo[3,2-c]pyridin-2-ylmethyl)pentan-2-ol]	–	potent agonists	potent activity
Cc1cc(C#N)cc2[nH]c(CC(O)(CC(C)(C)c3ccc(F)cc3O)C(F)(F)F)cc12 (centres unmarked) [2-[4-(4-Fluoro-2-hydroxyphenyl)-2-hydroxy-4-methyl-2-trifluoromethylpentyl]-4-methyl-1H-indole-6-carbonitrile]	–	potent agonists	potent activity
